From BindingDB's records for doi:10.1021/jm970446z (National Institute of Diabetes, 1998)

Legend:
[1] = target: T1, Adenosine receptor A3 (Homo sapiens, UniProt P0DMS8); experiment: Ability to displace [125I]-AB-MECA binding from adenosine A3 receptor.
T1 sequence (P0DMS8 whole entry): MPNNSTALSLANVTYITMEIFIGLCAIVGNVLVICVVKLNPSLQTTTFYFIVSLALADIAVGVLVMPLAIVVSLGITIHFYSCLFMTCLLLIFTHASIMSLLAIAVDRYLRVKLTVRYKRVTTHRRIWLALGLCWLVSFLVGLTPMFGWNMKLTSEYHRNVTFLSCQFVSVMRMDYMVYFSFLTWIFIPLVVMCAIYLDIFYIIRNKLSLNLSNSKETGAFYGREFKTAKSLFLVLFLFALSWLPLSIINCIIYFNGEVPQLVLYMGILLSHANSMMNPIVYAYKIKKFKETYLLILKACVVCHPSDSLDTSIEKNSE

[2] = target: Adenosine receptor A2a (Rattus norvegicus, UniProt P30543); experiment: Ability to displace [3H]-CGS- 21680 binding from adenosine A2A receptor.
Chain of Adenosine receptor A2a (P30543 whole entry): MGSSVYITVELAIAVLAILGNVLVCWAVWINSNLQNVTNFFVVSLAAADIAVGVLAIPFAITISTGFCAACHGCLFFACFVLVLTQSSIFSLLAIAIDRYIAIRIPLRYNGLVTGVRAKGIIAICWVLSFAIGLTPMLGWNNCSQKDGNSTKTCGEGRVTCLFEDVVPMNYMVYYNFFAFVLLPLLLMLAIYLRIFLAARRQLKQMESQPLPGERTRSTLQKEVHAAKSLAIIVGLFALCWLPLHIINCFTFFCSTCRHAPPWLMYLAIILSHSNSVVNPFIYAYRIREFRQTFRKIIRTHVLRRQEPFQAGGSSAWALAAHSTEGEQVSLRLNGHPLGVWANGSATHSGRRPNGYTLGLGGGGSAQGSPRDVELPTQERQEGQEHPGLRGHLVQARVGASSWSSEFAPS

[3] = target: T2, Adenosine receptor A1 (Rattus norvegicus, UniProt P25099); experiment: Ability to displace [3H]N6-phenylisopropyladenosine binding from adenosine A1 receptor.
T2 sequence (P25099 whole entry): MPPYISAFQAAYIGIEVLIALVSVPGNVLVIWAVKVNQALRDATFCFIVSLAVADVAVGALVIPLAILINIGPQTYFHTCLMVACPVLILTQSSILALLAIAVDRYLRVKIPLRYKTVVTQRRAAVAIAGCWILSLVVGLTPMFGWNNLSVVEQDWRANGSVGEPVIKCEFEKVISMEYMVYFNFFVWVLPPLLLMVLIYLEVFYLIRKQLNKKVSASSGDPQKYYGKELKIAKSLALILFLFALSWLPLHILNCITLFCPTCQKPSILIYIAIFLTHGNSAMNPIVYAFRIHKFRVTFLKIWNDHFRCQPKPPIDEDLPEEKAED

Compound	Ki [1] [µM]	Ki [2] [µM]	Ki [3] [µM]
O=c1c(Cl)c(-c2ccccc2)oc2ccccc12 [3-Chloro-2-phenyl-chromen-4-one]		25.1	
COc1cc(OC)c2c(=O)c(OC)c(-c3ccccc3)oc2c1 [3,5,7-Trimethoxy-2-phenyl-chromen-4-one]	0.831		
CCOc1ccc(-c2oc3cc(OCC)cc(OCC)c3c(=O)c2OCC)c(OCC)c1 [2-(2,4-Diethoxy-phenyl)-3,5,7-triethoxy-chromen-4-one]		26.3	
COc1c(O)cc2oc(-c3ccc(O)cc3)cc(=O)c2c1O [5,7-dihydroxy-2-(4-hydroxyphenyl)-6-methoxy-4H-chromen-4-one]		7.59	
O=c1c(Cl)c(-c2ccccc2)oc2ccc(Cl)cc12 [NSC-74876]		55	
COc1ccc(-c2cc(=O)c3c(O)cc(C)cc3o2)cc1 [5-Hydroxy-2-(4-methoxy-phenyl)-7-methyl-chromen-4-one]	50.1		
COc1cc2oc(-c3ccc(O)cc3)cc(=O)c2c(O)c1OC [cirsimartin]	3.16		
COc1ccc2c(c1)C(=O)C(O)C(C#Cc1ccccc1)O2 (stereo unspecified)	8.13		50.1
O=C1C[C@@H](c2ccc(O)cc2)Oc2ccccc21 [2-(4-hydroxyphenyl)-2,3-dihydro-4H-chromen-4-one]	22.9		

Next, values leading:

Ki [1] [µM]	Ki [2] [µM]	Ki [3] [µM]	Compound
0.589			O=c1c(O)c(-c2ccccc2)oc2cc(O)cc(O)c12 [norizalpinin]
4.57			COC1(OC)Cc2oc(-c3ccc(O)cc3O)c(CC=C(C)C)c(=O)c2C(O)=C1/C=C/C(C)C
	34.7		COc1ccc(-c2cc(=O)c3ccc(O)cc3o2)cc1OC [2-(3,4-dimethoxyphenyl)-7-hydroxy-4H-chromen-4-one]
6.61			COc1cc(OC)c2c(=O)c(OC)c(-c3cc(OC)c(OC)c(OC)c3)oc2c1 [3,5,7-Trimethoxy-2-(3,4,5-trimethoxy-phenyl)-chromen-4-one]
0.191			CCOc1c(-c2c(C)cc(C)cc2C)oc2ccc(Cl)cc2c1=O
3.39		8.13	COc1cc(O)c2c(c1)O[C@H](c1ccc(O)cc1)CC2=O [5-hydroxy-2-(4-hydroxyphenyl)-7-methoxychroman-4-one]
	56.2		CC(=O)Oc1cc(OC(C)=O)c2c(c1)OC(c1ccccc1)C(OC(C)=O)C2=O (stereo unspecified)
0.562			Cc1ccc(-c2oc3ccc(Cl)cc3c(=O)c2Cl)c(C(C)C)c1 [NSC-74899]
	166		CCOc1c2ccoc2cc2oc(/C=C/C=C/c3ccccc3)cc(=O)c12 [4-Ethoxy-7-((1E,3E)-4-phenyl-buta-1,3-dienyl)-furo[3,2-g]chromen-5-one]
16.2			O=C1CC(c2ccccc2)Oc2ccccc21 (stereo unspecified) [2-phenyl-2,3-dihydro-4H-chromen-4-one]
